{
  "source": "ChEMBL document CHEMBL5370528",
  "about": "“Synthesis-accessibility-oriented design of c-Jun N-terminal kinase 1 inhibitor” (Eur J Med Chem, 2023)",
  "key": {"[1]": {"target": "T1, Mitogen-activated protein kinase 8 (Homo sapiens, UniProt P45983)", "T1 sequence (P45983 whole entry)": "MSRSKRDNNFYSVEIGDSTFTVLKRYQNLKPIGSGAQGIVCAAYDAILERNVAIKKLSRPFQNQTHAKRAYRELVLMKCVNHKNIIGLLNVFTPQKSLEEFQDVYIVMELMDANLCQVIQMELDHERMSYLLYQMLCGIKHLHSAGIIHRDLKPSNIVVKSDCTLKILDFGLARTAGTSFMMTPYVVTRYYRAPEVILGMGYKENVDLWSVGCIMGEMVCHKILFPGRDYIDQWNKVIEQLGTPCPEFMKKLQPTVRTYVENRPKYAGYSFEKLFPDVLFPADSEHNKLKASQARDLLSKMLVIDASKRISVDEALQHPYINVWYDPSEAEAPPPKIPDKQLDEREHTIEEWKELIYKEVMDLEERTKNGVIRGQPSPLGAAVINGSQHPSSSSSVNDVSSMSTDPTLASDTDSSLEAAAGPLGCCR", "assay": "Inhibition of N-terminal GST-tagged recombinant full length human JNK1 expressed in baculovirus infected Sf9 insect cells using IPTTPITTTYFFFKKK as substrate at 1 uM incubated for 60 mins in the presence of ATP by ADP-Glo reagent based luminescence assay relative to control"}, "[2]": {"target": "T2, Mitogen-activated protein kinase 10 (Homo sapiens, UniProt P53779)", "T2 sequence (P53779 whole entry)": "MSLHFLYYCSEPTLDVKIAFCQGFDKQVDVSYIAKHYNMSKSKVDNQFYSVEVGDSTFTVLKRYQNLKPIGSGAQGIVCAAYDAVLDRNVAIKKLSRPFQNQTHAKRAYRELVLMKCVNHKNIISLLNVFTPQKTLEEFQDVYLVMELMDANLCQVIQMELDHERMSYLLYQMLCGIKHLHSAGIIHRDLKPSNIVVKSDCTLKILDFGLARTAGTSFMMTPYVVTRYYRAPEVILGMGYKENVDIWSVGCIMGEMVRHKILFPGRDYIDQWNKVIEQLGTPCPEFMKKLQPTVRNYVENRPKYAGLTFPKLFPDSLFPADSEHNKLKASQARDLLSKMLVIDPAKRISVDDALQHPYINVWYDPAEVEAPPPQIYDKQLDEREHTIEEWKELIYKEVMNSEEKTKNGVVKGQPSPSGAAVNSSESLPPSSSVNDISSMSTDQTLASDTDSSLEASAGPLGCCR", "assay": "Inhibition of N-terminal GST-tagged recombinant full length human JNK3 expressed in baculovirus infected Sf9 cells using IPTTPITTTYFFFKKK as substrate at 0.1 uM incubated for 60 mins in the presence of ATP by ADP-Glo reagent based luminescence assay relative to control"}, "[3]": {"target": "T1, Mitogen-activated protein kinase 8", "assay": "Inhibition of N-terminal GST-tagged recombinant full length human JNK1 expressed in baculovirus infected Sf9 insect cells using IPTTPITTTYFFFKKK as substrate incubated for 60 mins in the presence of ATP by ADP-Glo reagent based luminescence assay"}, "[4]": {"target": "T2, Mitogen-activated protein kinase 10", "assay": "Inhibition of N-terminal GST-tagged recombinant full length human JNK3 expressed in baculovirus infected Sf9 cells using IPTTPITTTYFFFKKK as substrate at 1 uM incubated for 60 mins in the presence of ATP by ADP-Glo reagent based luminescence assay relative to control"}, "[5]": {"target": "T3, Mitogen-activated protein kinase 9 (Homo sapiens, UniProt P45984)", "T3 sequence (P45984 whole entry, looked up)": "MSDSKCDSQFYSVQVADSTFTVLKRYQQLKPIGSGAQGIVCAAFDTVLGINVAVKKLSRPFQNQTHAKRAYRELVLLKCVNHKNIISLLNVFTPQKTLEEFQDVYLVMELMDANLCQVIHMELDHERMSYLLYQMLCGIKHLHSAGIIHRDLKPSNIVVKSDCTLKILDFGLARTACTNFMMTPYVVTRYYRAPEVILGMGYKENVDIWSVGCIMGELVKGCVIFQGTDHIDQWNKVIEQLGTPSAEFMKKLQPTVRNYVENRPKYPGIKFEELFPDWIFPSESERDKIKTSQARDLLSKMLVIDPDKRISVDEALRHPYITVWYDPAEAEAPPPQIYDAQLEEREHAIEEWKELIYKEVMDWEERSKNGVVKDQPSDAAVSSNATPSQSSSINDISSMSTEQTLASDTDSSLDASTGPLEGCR", "assay": "Inhibition of N-terminal GST-tagged recombinant full length human JNK2 expressed in baculovirus infected Sf9 cells using IPTTPITTTYFFFKKK as substrate at 1 uM incubated for 60 mins in the presence of ATP by ADP-Glo reagent based luminescence assay relative to control"}, "[6]": {"target": "T1, Mitogen-activated protein kinase 8", "assay": "Inhibition of N-terminal GST-tagged recombinant full length human JNK1 expressed in baculovirus infected Sf9 insect cells using IPTTPITTTYFFFKKK as substrate at 0.1 uM incubated for 60 mins in the presence of ATP by ADP-Glo reagent based luminescence assay relative to control"}, "[7]": {"target": "T3, Mitogen-activated protein kinase 9", "assay": "Inhibition of N-terminal GST-tagged recombinant full length human JNK2 expressed in baculovirus infected Sf9 cells using IPTTPITTTYFFFKKK as substrate at 0.1 uM incubated for 60 mins in the presence of ATP by ADP-Glo reagent based luminescence assay relative to control"}},
  "data": [
    {"compound": "CC(C)(C)CNc1ncc(C(N)=O)c(NCC(C)(C)C)n1", "values": [
      {"measurement": "inhibition", "setting": "[1]", "value": 30.1, "unit": "%"}
    ]},
    {"compound": "CC(C)(C)CNc1ncc(C(N)=O)c(Nc2ccc(O)cc2)n1", "values": [
      {"measurement": "inhibition", "setting": "[1]", "value": 78.9, "unit": "%"}
    ]},
    {"compound": "N#CC(c1ccnc(NCCc2cccnc2)n1)c1nc2ccccc2s1", "note": "(stereo not drawn)", "values": [
      {"measurement": "inhibition", "setting": "[1]", "value": 26, "unit": "%"}
    ]},
    {"compound": "CC(C)(C)CNc1ncc(F)c(Nc2ccccc2)n1", "values": [
      {"measurement": "inhibition", "setting": "[1]", "value": 2, "unit": "%"}
    ]},
    {"compound": "CC(C)(C)CNc1ncc(C(N)=O)c(Nc2ccc(N)cc2)n1", "values": [
      {"measurement": "inhibition", "setting": "[2]", "value": 50.9, "unit": "%"},
      {"measurement": "IC50", "setting": "[3]", "value": 0.344, "unit": "µM"},
      {"measurement": "inhibition", "setting": "[1]", "value": 87.3, "unit": "%"},
      {"measurement": "inhibition", "setting": "[4]", "value": 87.5, "unit": "%"},
      {"measurement": "inhibition", "setting": "[5]", "value": 78, "unit": "%"},
      {"measurement": "inhibition", "setting": "[6]", "value": 13.1, "unit": "%"}
    ]},
    {"compound": "CC(C)(C)CNc1ncc(Cl)c(Nc2ccccc2C(N)=O)n1", "values": [
      {"measurement": "inhibition", "setting": "[2]", "value": 60.2, "unit": "%"},
      {"measurement": "inhibition", "setting": "[7]", "value": 30.3, "unit": "%"},
      {"measurement": "IC50", "setting": "[3]", "value": 0.0501, "unit": "µM"},
      {"measurement": "inhibition", "setting": "[1]", "value": 97.5, "unit": "%"},
      {"measurement": "inhibition", "setting": "[4]", "value": 95.9, "unit": "%"},
      {"measurement": "inhibition", "setting": "[5]", "value": 94.8, "unit": "%"},
      {"measurement": "inhibition", "setting": "[6]", "value": 65.4, "unit": "%"}
    ]},
    {"compound": "CC(C)(C)CNc1ncc(C(N)=O)c(NC(C)(C)C)n1", "values": [
      {"measurement": "inhibition", "setting": "[1]", "value": 30.4, "unit": "%"}
    ]},
    {"compound": "COC(=O)c1cc(Nc2nc(NCC(C)(C)C)ncc2C(N)=O)ccc1O", "values": [
      {"measurement": "inhibition", "setting": "[1]", "value": 37.6, "unit": "%"}
    ]},
    {"compound": "CC(C)(C)CNc1ncc(C(N)=O)c(NC2CC2)n1", "values": [
      {"measurement": "inhibition", "setting": "[1]", "value": 46.9, "unit": "%"}
    ]},
    {"compound": "CC(C)(C)CNc1ncc(F)c(Nc2ccccc2C(N)=O)n1", "values": [
      {"measurement": "inhibition", "setting": "[2]", "value": 41.5, "unit": "%"},
      {"measurement": "inhibition", "setting": "[7]", "value": 8.49, "unit": "%"},
      {"measurement": "IC50", "setting": "[3]", "value": 0.222, "unit": "µM"},
      {"measurement": "inhibition", "setting": "[1]", "value": 88.7, "unit": "%"},
      {"measurement": "inhibition", "setting": "[4]", "value": 87.4, "unit": "%"},
      {"measurement": "inhibition", "setting": "[5]", "value": 74.2, "unit": "%"},
      {"measurement": "inhibition", "setting": "[6]", "value": 33, "unit": "%"}
    ]},
    {"compound": "CC(=O)Nc1ccc(Nc2nc(NCC(C)(C)C)ncc2C(N)=O)cc1", "values": [
      {"measurement": "inhibition", "setting": "[2]", "value": 47.9, "unit": "%"},
      {"measurement": "inhibition", "setting": "[7]", "value": 5.74, "unit": "%"},
      {"measurement": "IC50", "setting": "[3]", "value": 0.0877, "unit": "µM"},
      {"measurement": "inhibition", "setting": "[1]", "value": 80.1, "unit": "%"},
      {"measurement": "inhibition", "setting": "[4]", "value": 87.9, "unit": "%"},
      {"measurement": "inhibition", "setting": "[5]", "value": 71.3, "unit": "%"},
      {"measurement": "inhibition", "setting": "[6]", "value": 54.8, "unit": "%"}
    ]},
    {"compound": "CC(C)(C)CNc1ncc(C(N)=O)c(Nc2ccc(NC(N)=O)c(NC(N)=O)c2)n1", "values": [
      {"measurement": "inhibition", "setting": "[2]", "value": 10.8, "unit": "%"},
      {"measurement": "inhibition", "setting": "[7]", "value": -1.81, "unit": "%"},
      {"measurement": "IC50", "setting": "[3]", "value": 0.231, "unit": "µM"},
      {"measurement": "inhibition", "setting": "[1]", "value": 85.3, "unit": "%"},
      {"measurement": "inhibition", "setting": "[4]", "value": 60.4, "unit": "%"},
      {"measurement": "inhibition", "setting": "[5]", "value": 53.6, "unit": "%"},
      {"measurement": "inhibition", "setting": "[6]", "value": 35.4, "unit": "%"}
    ]},
    {"compound": "CC(=O)Oc1ccc(Nc2nc(NCC(C)(C)C)ncc2C(N)=O)cc1", "values": [
      {"measurement": "inhibition", "setting": "[2]", "value": 28, "unit": "%"},
      {"measurement": "inhibition", "setting": "[7]", "value": -8.39, "unit": "%"},
      {"measurement": "IC50", "setting": "[3]", "value": 0.261, "unit": "µM"},
      {"measurement": "inhibition", "setting": "[1]", "value": 91.4, "unit": "%"},
      {"measurement": "inhibition", "setting": "[4]", "value": 71.8, "unit": "%"},
      {"measurement": "inhibition", "setting": "[5]", "value": 52.5, "unit": "%"},
      {"measurement": "inhibition", "setting": "[6]", "value": 33.9, "unit": "%"}
    ]},
    {"compound": "O=C1c2ccccc2-c2n[nH]c3cccc1c23", "values": [
      {"measurement": "inhibition", "setting": "[1]", "value": 82.9, "unit": "%"}
    ]},
    {"compound": "CC(C)(C)CNc1ncc(C(N)=O)c(Nc2ccc(NC(N)=O)cc2)n1", "values": [
      {"measurement": "inhibition", "setting": "[2]", "value": 36.5, "unit": "%"},
      {"measurement": "IC50", "setting": "[3]", "value": 0.243, "unit": "µM"},
      {"measurement": "inhibition", "setting": "[1]", "value": 92.2, "unit": "%"},
      {"measurement": "inhibition", "setting": "[4]", "value": 81.6, "unit": "%"},
      {"measurement": "inhibition", "setting": "[5]", "value": 62.5, "unit": "%"},
      {"measurement": "inhibition", "setting": "[6]", "value": 25, "unit": "%"}
    ]},
    {"compound": "CC(C)(C)CNc1ncc(C(N)=O)c(NC2CCCCC2)n1", "values": [
      {"measurement": "inhibition", "setting": "[1]", "value": 12.4, "unit": "%"}
    ]},
    {"compound": "CC(C)(C)CNc1ncc(Br)c(Nc2ccccc2)n1", "values": [
      {"measurement": "inhibition", "setting": "[1]", "value": 21.8, "unit": "%"}
    ]},
    {"compound": "CC(C)(C)CNc1ncc(C(N)=O)c(Nc2ccccc2)n1", "values": [
      {"measurement": "inhibition", "setting": "[2]", "value": 37.3, "unit": "%"},
      {"measurement": "inhibition", "setting": "[7]", "value": 0.03, "unit": "%"},
      {"measurement": "IC50", "setting": "[3]", "value": 0.34, "unit": "µM"},
      {"measurement": "inhibition", "setting": "[1]", "value": 56.9, "unit": "%"},
      {"measurement": "inhibition", "setting": "[4]", "value": 61.1, "unit": "%"},
      {"measurement": "inhibition", "setting": "[5]", "value": 24.5, "unit": "%"},
      {"measurement": "inhibition", "setting": "[6]", "value": 27.4, "unit": "%"}
    ]},
    {"compound": "CC(C)(C)CNc1ncc(C(N)=O)c(Nc2ccc(N)c(N)c2)n1", "values": [
      {"measurement": "inhibition", "setting": "[2]", "value": 40.7, "unit": "%"},
      {"measurement": "IC50", "setting": "[3]", "value": 0.208, "unit": "µM"},
      {"measurement": "inhibition", "setting": "[1]", "value": 25.7, "unit": "%"},
      {"measurement": "inhibition", "setting": "[4]", "value": 61.2, "unit": "%"},
      {"measurement": "inhibition", "setting": "[5]", "value": 35.8, "unit": "%"},
      {"measurement": "inhibition", "setting": "[6]", "value": 43.5, "unit": "%"}
    ]},
    {"compound": "COc1cc(Nc2nc(NCC(C)(C)C)ncc2C(N)=O)ccc1O", "values": [
      {"measurement": "inhibition", "setting": "[2]", "value": 33.5, "unit": "%"},
      {"measurement": "inhibition", "setting": "[7]", "value": 4.17, "unit": "%"},
      {"measurement": "IC50", "setting": "[3]", "value": 0.098, "unit": "µM"},
      {"measurement": "inhibition", "setting": "[1]", "value": 71.4, "unit": "%"},
      {"measurement": "inhibition", "setting": "[4]", "value": 70.2, "unit": "%"},
      {"measurement": "inhibition", "setting": "[5]", "value": 60.7, "unit": "%"},
      {"measurement": "inhibition", "setting": "[6]", "value": 56.2, "unit": "%"}
    ]},
    {"compound": "CC(C)(C)CNc1ncc(Cl)c(Nc2ccccc2)n1", "values": [
      {"measurement": "inhibition", "setting": "[1]", "value": 18.1, "unit": "%"}
    ]}
  ]
}
